# Results reported in patent publication US20080058398A1, “Compounds” (priority 2006, published 2008).
# Counter-ions that a name gives are not always drawn.
# Columns and labels:
# D2 receptors = D2 receptors (Homo sapiens, UniProt P14416); assay: affinity for dopamine receptors (D2); format: binding
# dopamine D3 receptors = dopamine D3 receptors (Homo sapiens, UniProt P35462); assay: affinity for dopamine receptors (D3); format: binding
# D3 = D3 (Homo sapiens, UniProt P35462); assay: GTPγS scintillation proximity assay (GTPγS-SPA), antagonist format; format: biochemical; conditions: higher than Enantiomer 1
# Method: Functional potency and intrinsic activity of compounds of this invention can be measured by the following GTPγS scintillation proximity assay (GTPγS-SPA). Cells used in the study are Chinese Hamster Ovary (CHO) Cells.
# Cell membranes are prepared as follows. Cell pellets are resuspended in 10 volumes of 50 mM HEPES, 1 mM EDTA pH 7.4, using KOH. On the day the following proteases are added to the buffer just prior to giving the homogenisation buffer.
# 25 ug/mL Bacitracin (Sigma B0125)−1000×stock=25 mg/mL in buffer
# The cells are homogenised by 2×15 second bursts in a 1 litre Glass Waring blender in a class two biohazard cabinet. The resulting suspension is spun at 500 g for 20 mins (Beckman T21 centrifuge: 1550 rpm). The supernatant is withdrawn with a 25 mL pipette, aliquotted into pre-chilled centrifuge tubes and spun at 48,000 g to pellet membrane fragments (Beckman T1270: 23,000 rpm for 30 mins). The final 48,000 g pellet is resuspended in Homogenisation Buffer, (4× the volume of the original cell pellet). […] Protein content in the membrane preparations is evaluated with the Bradford protein assay.
# The final top concentration of test drug is 3 uM in the assay and 11 points serial dilution curves 1:4 in 100% DMSO are carried out using a Biomek FX. […] Assay plates are counted on a Viewlux, 613/55 filter, for 5 min., between 2-6 hours after the final addition. […]
# [1] = solid state accelerated stability (appearance, assay and total impurities by HPLC)
# Method: The solid state accelerated condition adopted were 40° C./75% RH (Relative Humidity) closed and exposed, and 50° C./amb RH (Ambient Relative Humidity) closed under air atmosphere.
# At one month time point the following samples have been analysed for the appearance, assay and total impurities.
# Assay and total impurities tests have been performed by HPLC with fast gradient method.
# Sequence of dopamine D3 receptors (P35462 whole entry): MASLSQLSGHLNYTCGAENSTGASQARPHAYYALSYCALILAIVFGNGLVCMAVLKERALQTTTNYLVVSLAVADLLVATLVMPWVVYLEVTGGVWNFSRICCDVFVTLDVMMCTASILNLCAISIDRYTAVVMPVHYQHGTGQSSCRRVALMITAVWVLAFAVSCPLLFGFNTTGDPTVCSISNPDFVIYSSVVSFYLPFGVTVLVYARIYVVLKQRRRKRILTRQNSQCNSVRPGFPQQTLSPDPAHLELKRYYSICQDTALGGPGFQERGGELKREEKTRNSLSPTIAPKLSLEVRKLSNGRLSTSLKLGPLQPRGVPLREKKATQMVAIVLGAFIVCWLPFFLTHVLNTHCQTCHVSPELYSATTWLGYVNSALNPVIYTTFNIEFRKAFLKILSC
# Sequence of D3 (P35462 whole entry): as above
# Sequence of D2 receptors (P14416 whole entry): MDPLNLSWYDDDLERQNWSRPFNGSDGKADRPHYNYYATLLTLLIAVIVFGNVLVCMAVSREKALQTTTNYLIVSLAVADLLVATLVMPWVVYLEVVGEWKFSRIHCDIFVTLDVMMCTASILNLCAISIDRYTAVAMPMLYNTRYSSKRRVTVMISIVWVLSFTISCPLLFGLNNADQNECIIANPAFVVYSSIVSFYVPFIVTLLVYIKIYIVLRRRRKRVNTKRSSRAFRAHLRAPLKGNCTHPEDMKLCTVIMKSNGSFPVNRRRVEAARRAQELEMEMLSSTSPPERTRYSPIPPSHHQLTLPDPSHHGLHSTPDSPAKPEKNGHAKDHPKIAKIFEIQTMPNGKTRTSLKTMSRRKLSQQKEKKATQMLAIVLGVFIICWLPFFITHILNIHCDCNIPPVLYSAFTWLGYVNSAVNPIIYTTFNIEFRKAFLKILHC
compound,measurement,setting,value
"Cc1ncoc1-c1nnc(SCCCN2C[C@@H]3C[C@]3(c3ccc(C(F)(F)F)cc3F)C2)n1C (single isomer, unassigned) [Enantiomer 2]",affinity for dopamine D2 receptors,D2 receptors,exhibit affinity
same,affinity for dopamine D3 receptors,dopamine D3 receptors,exhibit affinity
same,affinity for dopamine D3 versus D2 receptors,dopamine D3 receptors; D3 compared with D2,greater affinity for dopamine D3 than for D2 receptors
same,fpKi (D3) difference,D3,> 1 log-unit
"Cc1ncoc1-c1nnc(SCCCN2C[C@@H]3C[C@]3(c3ccc(C(F)(F)F)cc3F)C2)n1C [Preparation 7, (1S,5R)-1-[2-Fluoro-4-(trifluoromethyl)phenyl]-3-(3-{[4-methyl-5-(4-methyl-1,3-oxazol-5-yl)-4H-1,2,4-triazol-3-yl]thio}propyl)-3-azabicyclo[3.1.0]hexane hydrochloride]",change of total impurities,[1]; at any investigated stability condition,increase of total impurities
"Cc1ncoc1-c1nnc(SCCCN2CC3CC3(c3ccc(C(F)(F)F)cc3F)C2)n1C (centres unmarked) [the tartrate, 1-[2-fluoro-4-(trifluoromethyl)phenyl]-3-(3-{[4-methyl-5-(4-methyl-1,3-oxazol-5-yl)-4H-1,2,4-triazol-3-yl]thio}propyl)-3-azabicyclo[3.1.0]hexane]",stability in comparison with the hydrochloride salt,[1],improved stability
"Cc1ncoc1-c1nnc(SCCCN2C[C@@H]3C[C@]3(c3ccc(C(F)(F)F)cc3F)C2)n1C.O=C(O)C(O)C(O)C(=O)O [Example 1, (1S,5R)-1-[2-fluoro-4-(trifluoromethyl)phenyl]-3-(3-{[4-methyl-5-(4-methyl-1,3-oxazol-5-yl)-4H-1,2,4-triazol-3-yl]thio}propyl)-3-azabicyclo[3.1.0]hexane (2R,3R) tartrate]",stability in comparison with the hydrochloride salt,[1],improved stability
same,total impurities,"[1]; after 1 month, at any stability condition tested",around 0.5 % a/a
